Consider 2 compounds from patent publication US9943599B2, “Therapeutic applications of calcium electroporation to effectively induce tumor necrosis” (Herlev Hospital, priority 2011, dated 2018).

One experiment relates to DC-3F cells. Description: Calcium electroporation with two calcium sources, MTT assay. It counts as cell-based, Chinese hamster. The note with it: 1 mM, 8 pulses, 0-1.6 kV/cm; MTT 1 day after treatment. The procedure:
DC-3F cells were electroporated as described in example 1 with 1 mM calcium chloride (prepared by SAD, Denmark) or 1 mM calcium glubionate (Sandoz, Holzkirchen, Germany). The calcium concentration was chosen based on the experiment described in example 1 where 1 mM calcium is the lowest concentration inducing high cell death. The cells were electroporated with 8 pulses of […] at 1 Hz and increasing electric field (0-1.6 kV/cm). After 20 min at 37° C. and 5% CO2 cells were diluted in RPMI 1640 culture medium with 10% fetal calf serum and penicillin-streptomycin and seeded in 96-well plates at a concentration of 3.1×10^4 cells/100 μl.
A general note: Formazan colour is commonly taken as a measure of viable cells.

For experiment [1], the system named is DC-3F, K-562 and Lewis Lung Carcinoma cells. Description: In vitro electroporation, MTT viability assay. It counts as cell-based, Chinese hamster, human, murine. The note with it: electroporated; data not shown. The procedure: Three cell lines are used for in vitro experiments, DC-3F, a transformed Chinese hamster lung fibroblast cell line; K-562, a human leukemia cell line; and Lewis Lung Carcinoma, a murine lung carcinoma cell line. DC-3F cells were tested for mycoplasma in January 2011, K-562 cells were tested for mycoplasma in 2008 prior to freezing and thawing just before experiments were performed, and Lewis Lung cells were tested by rapid MAP27 panel (Taconic, Hudson N.Y.) in July 2011 without signs of infection. Cells are maintained in RPMI 1640 culture medium (GIBCO™, Life Technologies, Carlsbad, Calif.) with 10% fetal calf serum (GIBCO™, Life Technologies, Carlsbad, Calif.), penicillin and streptomycin at 37° C. and 5% C02. After harvesting, cells are washed and diluted in HEPES buffer containing 10 mM HEPES (Lonza, Basel, Switzerland), 250 mM sucrose and 1 mM MgCl2 in sterile water. 270 μl cell suspension (6.1×10^6 cells/ml) and 30 μl CaCl2, or in the case of controls, HEPES buffer, are electroporated in 4 mm wide cuvettes with aluminium electrodes (Molecular BioProducts, Inc., San Diego, Calif.). Cooled cells (8° C.) are exposed to 8 pulses of 1.2 kV/cm with pulse duration of 99 μs (DC-3F and K562 cells) or 8 pulses of 1.4 kV/cm with pulse duration of 99 μs (Lewis Lung Carcinoma) using a BTX® T820 square wave electroporator (BTX®, Harvard Apparatus, Holliston, Mass.). The electroporation parameters are chosen after optimization to obtain high permabilisation and cell survival. After 20 min at 37° C. and 5% CO2 cells are diluted in RPMI 1640 culture medium with 10% fetal calf serum and penicillin-streptomycin and seeded in 96-well plates at a concentration of 3.1×10^4 cells/100 μl.
Difference between electroporated and non-electroporated cells in identical buffer is assessed using two-way analysis of variance (ANOVA) with post least-squares-means test with Bonferroni correction for multiple comparisons.

Turning to `O.O=C([O-])[C@H](O)[C@@H](O)[C@H](O)[C@H](O)CO.O=C([O-])[C@H](O)[C@@H](O)[C@H](O[C@@H]1O[C@H](CO)[C@H](O)[C@H](O)[C@H]1O)[C@H](O)CO.[Ca+2]` [calcium glubionate], the “effect of calcium electroporation on cell viability, calcium chloride versus calcium glubionate” value in the experiment with DC-3F cells is recorded as “no difference”.

For bleomycin, the “concentration giving a decrease in viability similar to calcium electroporation” value in experiment [1] was ≥ 0.1 µM.
